Laboratory results published in US12295973B2 (Fred Hutchinson Cancer Center, priority 2017, dated 2025).
Where a SMILES comes first, the peptide text is derived from it. [ ]: non-standard residue; d: D form. The star is where a group is joined. dPhe(4-NHCONH2) = NC(=O)Nc1ccc(C[C@@H](N)C(=O)O)cc1; Dihydroorotyl(S) = O=C1C[C@@H](C(=O)*)NC(=O)N1; dPhe(4-Cl) = N[C@H](Cc1ccc(Cl)cc1)C(=O)O; Phe(4-NH2) = Nc1ccc(C[C@H](N)C(=O)O)cc1; d2Nal = N[C@H](Cc1ccc2ccccc2c1)C(=O)O; Lys(iPr) = CC(C)NCCCC[C@H](N)C(=O)O; d3Pal = N[C@H](Cc1cccnc1)C(=O)O

What was measured:
LT-HSCs = experiment: Gene expression in LT-HSCs purified after 300cGy irradiation; type: in vivo, mouse
Procedure: To gain some insights in to the molecular changes mediated by LHRH-Ant treatment on HSCs LT-HSCs were purified after 300cGy irradiation and expression of key genes associated with quiescence, proliferation, DNA damage response and apoptosis of HSCs was assessed. […] Importantly, both Bcl-2 and Mcl-1 have been implicated in regulating HSC quiescence and survival respectively^45,46.
Real time PCR: Reverse transcription-PCR was performed with QuantiTect reverse transcription kit (QIAGEN). For real-time PCR, specific primer and probe sets were obtained from Applied Biosystems as follows: β-actin (Mm01205647_g1); HPRT (Mm00446968_m1); AR (Mm00442688_m1); FSHR (Mm00442819_m1); LHCGR (Mm00442931_m1). PCR was done on ABI 7500 (Applied Biosystems) or Step-One Plus (Applied Biosystems) with TaqMan Universal PCR Master Mix (Applied Biosystems). Relative amounts of mRNA were calculated by the Ct method.
Statistics: Bars and error bars represent the mean+SEM for the various groups. For most experiments, nonparametric testing was performed if normal distribution could not be assumed. All tests performed are two sided. Statistical analysis between two groups was performed with the nonparametric, unpaired Mann-Whitney U test. Tests performed are two sided, except for gene category analysis. Differential expression of gene categories was computed using Fisher's method and the input p-value for each individual gene from a category is computed from a one sided test. Survival data were analyzed with the Mantel-Cox log-rank test. Parametric t test was used for FIG. 6H right panel. The experiments were not randomized and the investigators were not blinded to the group allocation during the experiments or when assessing the outcomes. To ensure adequate power for statistical analysis at least five samples per group were tested. In general variation within groups and between experiments was low, however to take into account inter-experimental variation all experiments were performed at least twice. To account for intra-experimental variation, particularly for in vitro studies, several wells per conditions were assessed with primary sample material coming from at least two different mice. No samples or animals were excluded from the analysis except for mouse peripheral blood analysis where outliers were detected prior to the analysis with two-sided Grubbs' test for outliers (GraphPad). All statistics were calculated and display graphs generated using GraphPad 6.

[1] = system: hematopoietic stem and progenitor cell (HSPC) compartment; experiment: Bone marrow analysis of the HSPC compartment after L-TBI (cellularity, flow cytometry); type: in vivo, mouse
Procedure: To investigate the specific regenerative effects mediated by LHRH-Ant treatment on the hematopoietic stem and progenitor cell (HSPC) compartment, BM were analyzed at several time points after L-TBI. […] To determine hematopoietic functional potential, colony-forming unit activity was next quantified to determine the effects of LHRH-Ant on the recovery of committed hematopoietic progenitor cells. […] Consistent with these functional findings, on day 14 after L-TBI, expansion of LSKs as well as their downstream progenitors in mice given LHRH-Ant were found (FIGS. 2F, 2G). […] However, given the changes in HSC phenotype after radiation, the standard competitive repopulation functional assay was adapted to evaluate the presence and relative quantity of functional HSCs after L-TBI. Specifically, all cells from the BM and spleen (to account for potential changes to circulating HSCs) were collected and transplanted from vehicle or LHRH-Ant treated mice at day 14 after L-TBI into irradiated hosts (along with a rescue dose of congenic WBM cells to ensure survival). This approach allowed detection of differences in the total number of residual HSCs which would be reflected by a functional difference in hematopoietic reconstitution.
Flow cytometry and cell cycle analysis: Monoclonal antibodies recognizing the following markers were used for flow cytometric analyses and cell sorting of murine cells (LSR II or FACSAria III, BD Biosciences): (from BD Pharmingen) c-kit (2B8), Sca-1 (D7), CD11b (M1/70), CD11c (HL3), CD19 (ID3), CD3ϵ (145-2C11), CD34 (RAM34), CD45 (30-F11), CD45.1 (A20), CD45.2 (104), CD48 (HM48-1), CD62L (MEL-14), CD135 (A2F10.1), Gr-1 (RB6-8C5), NK1.1 (PK136), TER-119 (TER-119); (from eBioscience) CD127 (A7R34), CD150 (mShad150); (from Invitrogen) B220 (RA3-6B2) and streptavidin (N/A). The mouse lineage antibody cocktail included anti-CD3, anti-CD4, anti-CD8α, anti-CD19, anti-CD11 b, anti-CD11c, anti-Gr-1, anti-NK1.1, and anti-TER119. The following antibodies were used for flow cytometry analyses of human samples, CD49f (eBioGoH3), CD45RA (L48), CD34 (581), CD38 (HIT2). CD90 (5E10), CD10 (H110a). The human lineage antibody cocktail included anti-CD3, anti-CD14, anti-CD16, anti-CD19, anti-CD20, anti-CD56. To detect human LHCGR a polyclonal anti-LHCGR (Alomone, cat #:ALR-010) was used. For intracellular Ki67/DAPI staining, BM cells were stained with surface markers, fixed, and permeabilized using the Fixation/Permeabilization kit (cat. 00552100 ebioscience) and permeabilization buffer (cat. 008333 ebioscience). Cells were then incubated with Ki67-Alexa 700 (B56) (from BD Biosciences) for 45 minutes at 4C. After centrifugation DAPI (5 μg/ml) was added to cells and allowed to incubate for at least 30 min at RT before analysis. […]

Structure (SMILES): CC(=O)N[C@H](Cc1ccc2ccccc2c1)C(=O)N[C@H](Cc1ccc(Cl)cc1)C(=O)N[C@H](Cc1cccnc1)C(=O)N[C@@H](CO)C(=O)N[C@@H](Cc1ccc(NC(=O)[C@@H]2CC(=O)NC(=O)N2)cc1)C(=O)N[C@H](Cc1ccc(NC(N)=O)cc1)C(=O)N[C@@H](CC(C)C)C(=O)N[C@@H](CCCCNC(C)C)C(=O)N1CCC[C@H]1C(=O)N[C@H](C)C(N)=O [LHRH-Ant, Degarelix] (Ac-[d2Nal][dPhe(4-Cl)][d3Pal]S[Phe(4-NH2)](Dihydroorotyl(S))[dPhe(4-NHCONH2)]L[Lys(iPr)]P[dA]-NH2)
- expression level of Cdknla (p21) (LT-HSCs): significantly higher levels
- expression level of Hest (LT-HSCs): significantly higher levels
- expression of anti-apoptotic gene Bcl2 (LT-HSCs): significantly increased
- expression of anti-apoptotic gene Mcl1 (LT-HSCs): significantly increased
- expression of genes related to apoptosis (LT-HSCs; p=0.004): significant overexpression
- expression of genes related to quiescence (LT-HSCs; p=0.02): significant overexpression
- total BM cellularity ([1]; day 7 after L-TBI, vs vehicle): no difference
- LSKs and their downstream progenitors ([1]; day 14 after L-TBI): expansion
- LT-HSCs number ([1]; day 14 after L-TBI): significantly more LT-HSCs
- BM cellularity ([1]; day 14 after radiation, vs vehicle): started to separate significantly from the vehicle group by day 14
